Laboratory results reported in patent US20180171291A1, “DERIVATION OF ENDOTHELIAL CELLS FROM MAMMALIAN PLUIRPOTENT STEM CELLS” (THE JOHNS HOPKINS UNIVERSITY, priority 2012, published 2018).

B1: BMP4: angiogenic growth factor, bone morphogenetic protein-4 (protein, UniProt P12644 293-408, looked up)
Bone morphogenetic protein 4: SPKHHSQRARKKNKNCRRHSLYVDFSDVGWNDWIVAPPGYQAFYCHGDCPFPLADHLNSTNHAIVQTLVNSVNSSIPKACCVPTELSAISMLYLDEYDKVVLKNYQEMVVEGCGCR

System: hPSCs
Test: sequential differentiation of hPSCs into endothelial cells on collagen IV, EC marker expression by flow cytometry / immunofluorescence
Type: cell-based, human
Protocol: In the inventive method, hPSCs were cultured at a concentration of 1.25×10^4 per cm^2 on collagen IV plates for 12 days. In the “direct” method, the cells were treated with VEGF for the entire time. With the “sequential” method, the cells were supplemented with 10% serum and were not treated with VEGF until day 6. See FIG. 1 for a comparison of the protocols.
In our sequential method, hPSCs were cultured on collagen IV plates in media supplemented with 10% serum. After 6 days in culture, cells were strained and re-cultured in media supplemented with 50 ng/ml vascular endothelial growth factor (VEGF). Cells which were differentiated via direct means were cultured in the VEGF-supplemented media for all 12 days. EC markers were examined via immunofluorescence microscopy and flow cytometry. We tested hESC line, H9, as well as hiPSC line, MR31, which was derived from normal, fetal fibroblasts using three factors, Oct-4, Sox2, Klf4 (8, 9).
However, because sequentially-derived cells were only ˜5% VEcad+, we sought to improve upon the differentiation efficiency via biochemical means. To this end, we studied the addition of a TGFβ inhibitor, SB431542 (10) as well as angiogenic growth factors, bone morphogenetic protein-4 (BMP4) and Indian Hedgehog (lhh). For our TGFβ inhibitor studies, we examined the effects of SB431542 in the second half of differentiation plus high (50 ng/ml) or low (1 ng/ml) VEGF. […] Remarkably, VEcad expression increased regardless of high or low VEGF concentrations. […] Cells expressed approximately 1% Tra-1-60 indicating they were fully differentiated.

[1] = added in the second half of sequential differentiation plus VEGF, 12 days in culture

Molecule | Expression of CD31 [1] | Expression of KDR [1] | expression of mature EC marker, VEcad (added in the second half of sequential differentiation plus high (50 ng/ml) or low (1 ng/ml) VEGF, 12 days in culture) | endothelial differentiation capacity (compared with levels seen with SB431542 supplementation)
NC(=O)c1ccc(-c2nc(-c3ccc4c(c3)OCO4)c(-c3ccccn3)[nH]2)cc1 [SB431542] | increased | increased | dramatic increase | 
B1 |  |  |  | not able to augment
